Experimental data published in US12649753B2, “Inositol derivative and use thereof” (SHANGHAI SENHUI MEDICINE CO., LTD., priority 2020, dated 2026).

Assay: Spectrophotometric pharmacodynamics (PD) assay: inhibition of hydroxyapatite generation in human plasma
Type: biochemical
Details: human plasma (EDTA-K2), phosphate 1.5 mM and calcium 12.5 mM final, 25° C., slope of absorbance at 550 nm between 6 min and 24 min; read-out: IC50 (Mean ± SD)
Protocol: The inhibition effect of the test compounds on the generation of the human plasma hydroxyapatite (HAP) was determined by the spectrophotometric pharmacodynamics (PD) assay.
1.1 Preparation of Reagents • 1) Human plasma anticoagulated with EDTA-K2. • 2) Mixed solution: disodium hydrogen phosphate 5 mM, calcium chloride 41.67 mM, adjusted to pH 7.4 and filtered through a 0.22 μm filter. • 3) Sodium chloride solution: 0.15 M, adjusted to pH 7.4 and filtered through a 0.22 μm filter.
2.1 Test Procedures • 1) The test compounds were prepared using a 0.15 M sodium chloride solution. • 2) The human plasma sample was reprocessed. A sufficient amount of plasma was taken and centrifuged at room temperature at 10000 g for 30 min for later use. • 3) The plasma was added to a 96 well plate at 75 μL/well. • 4) The candidate drug was added at 5 μL/well. • 5) The mixed solution of disodium hydrogen phosphate and calcium chloride was added at […], with expected final concentrations of 1.5 mM and 12.5 mM, respectively. • 6) The plate was incubated at room temperature (25° C.) on a shaker (750 rpm), and the absorbance at a wavelength of 550 nm was measured every 3 min. • 7) The final reading was set as the slope of the change in absorbance between 6 min and 24 min.

- IC50: 1860 ± 142 nM
Compound: COCCOCCO[C@@H]1C(OP(=O)(O)O)[C@H](OCCOCCOC)[C@@H](OP(=O)(O)O)C(OP(=O)(O)O)[C@H]1OP(=O)(O)O (stereo partly shown) [INS 3001]
